Experiment [1] deals with indomethacin-induced gastric mucosal lesions. Kind of experiment: Preventive effect on in vivo indomethacin-induced gastric injury. The settings on record: rats, 10 mg/kg via oro-gastric tube prior to indomethacin 40 mg/kg for 12 hrs, FIG. 3A. The arrangement: species or system Sprague-Dawley male rats. The source says:
Six-week old specific-pathogen-free (SPF) Sprague-Dawley male rats (Charles River, Tokyo, Japan) were used for experiments. The rats were fed a sterilized commercial pellet diet (Biogenomics Co., Seoul, Korea), given sterile water ad libitum, and housed in air-conditioned biohazard room with a 12-h light:12-h dark cycle. The rats were divided into four groups; indomethacin-only treatment group, revaprazan-indomethacin treatment group, ethanol-only treatment group and revaprazan-ethanol treatment group. The rats were food-deprived 24 hours, and then administered with 10 mg/kg revaprazan suspended in 0.5% CMC (carboxymethylcellulose) via oro-gastric tube prior to exposure to either indomethacin (40 mg/kg for 12 hrs) or absolute ethanol (6 ml/kg for 1 hr). The stomachs of the rats belonging to the groups treated with indomethacin were excised and the degree of gastric mucosal lesions was observed (see FIG. 3A). Referring to FIG. 3A, in the indomethacin-only treatment group, increased hemorrhagic lesions in gastric mucosa were observed visually. […] Also, the stomachs of the rats belonging to the ethanol treatment groups were excised and the degree of gastric mucosal lesions was observed (see FIG. 3B).

For the next experiment, the system named is interleukin-8 (IL-8). Kind of experiment: Expression level of IL-8 in sulindac-treated cells (RT-PCR). Format: cell-based, rat. The settings on record: RGM-1 cells, revaprazan 25 uM (rebamipide 50 uM) 16 hours, then sulindac 100 uM 8 hours, FIG. 6. As for the experimental part:
In order to evaluate cytoprotective effect of revaprazan, 100 μM of sulindac belonging to NSAIDs was added to the rat cells, and the expression levels of pro-angiogenic growth factors, VEGF (Vascular Endothelial Growth Factor), interleukin-8 (IL-8), and COX-2 (cyclooxygenase-2) were measured. Rebamipide (50 μM), known to have cytoprotective properties, was used as a control drug and revaprazan (25 μM) was used as a test drug. The rat gastric mucosal (RGM-1, RIKEN cell bank, Japan) cells were seeded in culture dishes at 2×10^6 cells/100 mm^2 and cultured in RPMI 1640 (Gibco BRL, Grand Island, N.Y., U.S.A.), supplemented with 100 units/mL penicillin, 100 ug/mL streptomycin, and 10% FBS (Fetal Bovine Serum). […] The culture media were removed and the cells were washed three times with PBS (137 mM NaCl, 2.7 mM KCl, 10 mM Na2HPO4, and 2 mM KH2PO4). A solution of sulindac in DMSO was added to the cells to reach a final concentration of 100 uM and the cells were cultured at 37° C. for 8 hours. The cultured cells were collected by centrifugation at 23° C. at 3000 rpm for 3 minutes, and the total RNA was isolated from the cells using the TRIzol reagent (Life technologies, Milan, Italy). Sterilized RNase-free water was added to 2 μg of the total RNA and 1 μl of 10 pmol/λ oligo dT to obtain reaction solutions with a volume of 34 μl. […]

Experiment [2] has as its system indomethacin-induced gastric mucosal lesions. Nature of the experiment: Treatment effect on NSAID-induced gastropathy. Type of experiment: in vivo, Sprague Dawley male rats. To be noted: rats, 5 mg/kg and 10 mg/kg given 8 hours after indomethacin 40 mg/kg, for one hour, FIG. 9. As for the experimental part: Six-week old specific-pathogen-free (SPF) Sprague Dawley male rats (Charles River, Tokyo, Japan) were used for experiments. The rats were fed a sterilized commercial pellet diet (Biogenomics Co., Seoul, Korea), given sterile water ad libitum, and housed in air-conditioned biohazard room with a 12-h light:12-h dark cycle. The rats were food-deprived 24 hours, and then treated with 1 ml of a solution of indomethacin (40 mg/kg) in 0.5% CMC (carboxymethylcellulose) via oro-gastric tube. 8 hours after the indomethacin treatment, the rats were treated with 1 ml of a solution of revaprazan (5 mg/kg and 10 mg/kg) in 0.5% CMC for one hour, and the degree of gastropathy was determined in the same manner as in Example 8.

Structures are written as SMILES.

With `Cc1nc(Nc2ccc(F)cc2)nc(N2CCc3ccccc3C2C)c1C` (stereo not shown) [revaprazan, 5,6-dimethyl-2-(4-fluorophenylamino)-4-(1-methyl-1,2,3,4-tetrahydroisoquinolin-2-yl)pyrimidine], the indomethacin-induced gastric injury entry in experiment [1] is “completely inhibited”. Moreover, in the experiment on interleukin-8 (IL-8), the “expression level of IL-8 versus rebamipide-sulindac treatment group” value is recorded as “much higher”. In addition, in experiment [2], the “gastric mucosal hemorrhagic lesions after treatment” value was “remarkably improved”; the “number of erosions and ulcers” value was “reduced”.

Source of the values: patent US7776873B2, “Method for treating damage to gastric mucosa” (Yuhan Corporation, priority 2005, dated 2010).
